Measurements from PubChem BioAssay (NCI).
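Values below derive from 48-hour exposures of cells grown in 96-well plates, with endpoints linearly interpolated between the two concentrations bracketing the appropriate inhibition level. TGI: concentration producing complete growth inhibition.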

What was measured:
Assay in all cases: NCI anticancer screen, dose series, 48 h
KM12 colon = system: KM12 colon
MCF7 breast = system: MCF7 breast
UO-31 renal = system: UO-31 renal
SK-MEL-28 melanoma = system: SK-MEL-28 melanoma
HOP-92 NSCLC = system: HOP-92 NSCLC
HCT-116 colon = system: HCT-116 colon
TK-10 renal = system: TK-10 renal
ACHN renal = system: ACHN renal
OVCAR-4 ovarian = system: OVCAR-4 ovarian
DU-145 prostate = system: DU-145 prostate

Row | Compound | TGI (KM12 colon) | TGI (MCF7 breast) | TGI (UO-31 renal) | TGI (SK-MEL-28 melanoma) | TGI (HOP-92 NSCLC) | TGI (HCT-116 colon) | TGI (TK-10 renal) | TGI (ACHN renal) | TGI (OVCAR-4 ovarian) | TGI (DU-145 prostate)
1 | C=C1C[C@@H](O)[C@@H](Br)C(C)(C)[C@@]12C=CC(=O)CC2 | 5.31 µM | > 100 µM | > 100 µM | > 100 µM | > 100 µM | > 100 µM | > 100 µM | > 100 µM | > 100 µM | > 100 µM
2 | CC(=O)C(C(=O)c1ccc(C)cc1)[C@H]1OC(C)(C)O[C@H]1[C@H]1COC(C)(C)O1 (stereo partly drawn) | 18.9 µM | 8.68 µM | 14 µM | 15.8 µM | 16.7 µM | 6.81 µM | 14.5 µM | 13.2 µM | 9.37 µM | –
3 | O=c1[nH]nc(-c2ccccc2)n1/N=C/c1ccccc1O | > 100 µM | > 100 µM | > 100 µM | – | > 100 µM | > 100 µM | > 100 µM | > 100 µM | > 100 µM | > 100 µM
4 | Nc1[nH]c(=O)nc2snnc12 | > 100 µM | > 100 µM | > 31.2 µM | 96.9 µM | > 100 µM | > 100 µM | > 83.9 µM | > 100 µM | > 100 µM | > 100 µM
5 | O=C1CCCC/C1=C\c1ccc([N+](=O)[O-])cc1 | 38.4 µM | 37.4 µM | 36.3 µM | 23.5 µM | 52.1 µM | 25.7 µM | 26.3 µM | 68.1 µM | 53.1 µM | > 100 µM
6 | CC1CN=C(Nc2cccc(F)c2)S1 (stereo not drawn) | > 100 µM | > 100 µM | > 100 µM | > 100 µM | > 100 µM | > 100 µM | > 100 µM | > 100 µM | > 100 µM | > 100 µM
7 | FC(F)(F)c1ccc2c(c1)nc1n2C(c2c(Cl)cccc2Cl)SC1 (stereo not drawn) | 27.2 µM | 55.2 µM | 31.8 µM | 43.3 µM | 37 µM | 29.5 µM | 47 µM | 40.3 µM | 43.4 µM | 56.1 µM
8 | CCOC(=O)c1sc2c(c1OC(=O)c1cc(OC)c(OC)c(OC)c1)c(=O)n(-c1ccccc1)c(=S)n2-c1ccccc1 | > 100 µM | > 100 µM | – | > 100 µM | 95.3 µM | > 100 µM | > 100 µM | > 100 µM | > 100 µM | > 100 µM
9 | O=C(N=Nc1ccc(Cl)cc1Cl)NNc1ccc(Cl)cc1Cl | – | – | 37.5 µM | 53.9 µM | – | 28.7 µM | 55.5 µM | 42.5 µM | 38 µM | 33.3 µM
10 | COc1cc(/C=N/N=C(\N)NO)cc(OC)c1OC | > 100 µM | 85.9 µM | > 100 µM | > 100 µM | > 100 µM | > 100 µM | > 100 µM | 72 µM | > 100 µM | > 100 µM
11 | O=C1/C(=C\c2ccc(Br)cc2)CCCc2ccccc21 | 29 µM | > 100 µM | 27.8 µM | 40.9 µM | 39.8 µM | 24.8 µM | 35.4 µM | 30.6 µM | 26.3 µM | 49.4 µM
12 | C[C@@H](C[C@H]1OC(C)(C)O[C@@H]1C(C)(C)O)[C@H]1CC=C2[C@]3(C)[C@H](O)C[C@H]4C(C)(C)[C@H](O)CC[C@]4(C)[C@H]3CC[C@]21C | 16 µM | 12.8 µM | 23.7 µM | 18.6 µM | 13.6 µM | 16 µM | 17.8 µM | 15.8 µM | 26.2 µM | 28.7 µM
13 | N=c1oc2ccccc2cc1-c1nc2ccccc2[nH]1 | > 100 µM | > 100 µM | 24.8 µM | > 100 µM | 35.5 µM | > 100 µM | 38.4 µM | 45.4 µM | > 100 µM | 35.7 µM
14 | COc1ccc(-c2c(-c3ccc(OC)cc3)n3c(=O)n(C)c(=O)n23)cc1 | > 100 µM | > 100 µM | > 100 µM | > 100 µM | 76 µM | > 100 µM | > 100 µM | > 100 µM | > 100 µM | 65.2 µM
15 | N#Cc1c2ccc([N+](=O)[O-])cc2c(=O)n2c1[nH]c1ccc(C(F)(F)F)cc12 | > 100 µM | > 100 µM | 56.9 µM | > 85.4 µM | 51.9 µM | > 41.6 µM | > 100 µM | > 100 µM | > 100 µM | > 100 µM
16 | COc1ccc(C2=[S+]C(c3ccccc3)(c3ccccc3)c3ccccc32)cc1 | 31.1 µM | > 100 µM | – | 58.5 µM | 39.4 µM | 24.3 µM | 73.3 µM | 86.1 µM | 62.2 µM | 65.7 µM
17 | CC(C)=NOC(=O)CNC(=O)C(Cc1ccccc1)NC(=O)C(C)NC(=O)OC(C)(C)C (stereo not drawn) | > 100 µM | > 100 µM | > 100 µM | > 100 µM | > 100 µM | > 100 µM | > 100 µM | > 100 µM | > 100 µM | > 100 µM
18 | COc1ccc2cc(CNCCCCCCCCNCc3ccc4cc(OC)ccc4c3)ccc2c1 | – | > 100 µM | – | 9.8 µM | 10 µM | > 100 µM | 5.2 µM | 10.3 µM | 9.55 µM | > 100 µM
19 | CC[C@@H](CCCCC1CC[C@H]2CC(=O)C[C@@H]12)OC (stereo partly drawn) | > 100 µM | > 100 µM | – | > 100 µM | > 100 µM | > 100 µM | > 100 µM | > 100 µM | > 100 µM | > 100 µM
20 | C1CCCCC2(CCCCCCCCC3(CCC1)SCCS3)SCCS2 | > 100 µM | > 100 µM | – | > 100 µM | > 100 µM | > 100 µM | > 100 µM | > 100 µM | > 100 µM | > 100 µM
21 | CC12CC(=O)Nc3ccccc3N1C(c1ccccc1)=NO2 (stereo not drawn) | > 100 µM | > 100 µM | > 100 µM | – | > 100 µM | > 100 µM | > 100 µM | > 100 µM | > 100 µM | > 100 µM
22 | Cc1nc2ccc(S(=O)(=O)NS(=O)(=O)c3ccc(-c4ccccc4)cc3)cc2c(=O)n1NS(=O)(=O)c1ccc(-c2ccccc2)cc1 | > 100 µM | > 100 µM | > 100 µM | > 100 µM | > 100 µM | > 100 µM | > 100 µM | > 100 µM | > 100 µM | > 100 µM
